Measured values: US20210108198A1, “APPLICATION OF COMPOUND OR TRADITIONAL CHINESE MEDICINE EXTRACT IN PREPARATION OF NUCLEIC ACID DELIVERY AGENT AND RELATED PRODUCTS THEREOF” (INSTITUTE OF BASIC MEDICAL SCIENCES CHINESE ACADEMY OF …, priority 2017, published 2021)

Legend:
A549 cell line = assay: Fluorescence in situ hybridization (FISH) of small RNA delivered by lipid; assay type: cell-based, human; conditions: reverse evaporation method; FIG. 12
Description: 3.3.3 Fluorescence In Situ Hybridization (FISH) of Small RNA
9) The culture plate was placed in a hybridization cassette in hybridization buffer (50% formamide, 5×SSC, 5× Denharts, 250 μg/mL yeast RNA, 500 μg/mL herring sperm DNA) and pre-incubated at room temperature for 1 hour.
10) Add RNA probes (HJT-sRNA-m7 probe: 5′-[…]-3′ (SEQ ID NO: 27), Scrambled probe: 5′-[…]-3′ (SEQ ID NO: 28), U6 probe: 5′-[…]-3′ (SEQ ID NO: 29)) to the hybridization buffer (the concentration of RNA probes was 0.1-0.2 ng/μ1), denature at 85° C. for 5 min, and quickly place it on ice. […]
(§1) Mixtures of soybean PC, lipid No. 11 (18:0/18:2) and lipid No. 12 (16:0/18:2), and various small RNA (see below Table 3) were prepared by the reverse evaporation method and then added into A549 cell line (the final concentration of sRNA was 200 nM); the negative control group (control) was directly added with the same concentration of sRNA; the positive control group (RNAimax) was transfected with Lipofectamine RNAimax (transfection reagent 6 μl/well). The abundance of sRNA in the cells was detected by Taqman probe after 3 hours, and the relative expression level of sRNA was calculated by 2-ΔCt method.

A549 cell = assay: RT-qPCR detection of nucleic acid delivered by lipid into A549 cells; assay type: cell-based, human; conditions: various small RNA 200 nM; reverse evaporation method; 3 hours; compared with the control; FIG. 11A-C
Description: 3.1 NCI-N87 cell (gastric cancer cell), MRC-5 cell (lung fibroblast), A549 cell (lung cancer cell) were cultured to logarithmic growth phase, and then plated to a six-well plate at cell density of 1×10^6/2 mL medium/well; MRC-5 cell was cultured in Eagle's MEM medium (MEM, Gibco); A549 cell was cultured in Ham's F-12 medium (HyClone); NCI-N87 cell was cultured in RPMI-1640 medium (HyClone); followed by incubation overnight at 37° C., and the follow-up experiments were performed after the cells were attached to the walls.
4) Lipid nucleic acid mixture: the mixture of lipid and HJT-sRNA-m7 prepared from the step 2 were added into cells and mixed, and the final concentration of RNA was kept at 200 nM.
3.3 After co-incubation with the small RNA for 3 hours, the cells were washed 2-3 times with PBS. The cells were harvested with TRIzol lysis buffer, and the total RNA was extracted. The abundance of small RNA that entered cells was detected by RT-qPCR, and the localization of RNA was detected by fluorescence in situ hybridization; protocols of each detection method were as follows:
3.3.1 RT-qPCR Detection of Small RNA (Taqman Probe Method)
3.3.2 RT-qPCR Detection of Small RNA (SYBR Green Dye Method)
as §1
3.1.3 After co-incubation with cells for 12-24 hours, the cells were washed twice with PBS. The cells were harvested with TRIzol lysis buffer (purchased from Sigma-Aldrich), and total RNA was extracted. The abundance of HJT-sRNA-m7 that entered the cells was detected by RT-qPCR; the protocols were as follows:
4368813) was used to reverse transcribe sRNA to cDNA by stem-loop method (see, e.g. Real-time quantification of microRNAs by stem-loop RT-PCR, Nucleic Acids Res. 2005 Nov. 27; 33(20):e179, incorporated by reference herein).

[1] = In vivo delivery of lipid nucleic acid mixture by gavage (blood and lung); set-up: species or system C57 mice; conditions: gavage 200 μl/animal; 6 hours after gavage; FIG. 14
Description: 1. Preparation of lipid nucleic acid mixture: the mixture of lipid No. 11 or No. 12 with nucleic acid, and the mixture of the lipid combination of No. 1/2/4/9/14/18/19/20/21/22/23/24/25/26/27/28/29/30/32, No. 3/8/10/11/12/13, and No. 6/15/16/17/31 with nucleic acid were prepared by reverse evaporation and boiling method (refer to steps 2.1-2.2).
2. Gavage were performed on 6-8 weeks old male C57 mice: 200 μl/aminal, grouped as follows:
(1) Control group (free uptake group): no treatment or HJT-sRNA-m7 was given by gavage;
(2) Lipid No. 11 (18:0/18:2) group: lipid No. 11 (18:0/18:2) or a mixture of lipid No. 11 (18:0/18:2) and HJT-sRNA-m7 were given by gavage;
(3) Lipid No. 12 (16:0/18:2) group: lipid No. 12 (16:0/18:2) or a mixture of lipid No. 12 (16:0/18:2) and HJT-sRNA-m7 were given by gavage;
3. Sample collection: 6 hours after gavage, mouse whole blood (500 μl) and lung (110 mg) were collected by 1.5 mL TRIzol-LS or 3 mL TRIzol, respectively, homogenized and then frozen under −80° C. for storage.
4. […]

[2] = test system: 3′UTRs of their target genes; assay: Luciferase with wild-type or mutated 3′UTR of target gene after lipid-mediated sRNA delivery; assay type: cell-based; conditions: FIG. 13
From the text: It can be used as a means for the delivery of nucleic acid drug.

Structure (SMILES) | localization of delivered nucleic acid (FISH) (A549 cell line) | abundance of sRNA in the cells (Taqman probe) (A549 cell) | entry of HJT-sRNA-m7 into blood and lung (RT-qPCR) [1] | effect on the mutated 3′UTR of target genes (Luciferase) [2] | relative expression level of the Luciferase with the wild-type 3′UTR [2]
CCCCC/C=C\C/C=C\CCCCCCCC(=O)O[C@H](COC(=O)CCCCCCCCCCCCCCCCC)COP(=O)([O-])OCC[N+](C)(C)C [No. 11, trimethyl(2-{[(2R)-2-[(9Z,12Z)-octadeca-9,12-dienoyloxy]-3-(octadecanoyloxy)propylphosphonato]oxy}ethyl)azanium] | entered into cytoplasm and were primarily localized in cytoplasm | could effectively facilitate nucleic acid molecules of different sequences entry into various cells | could promote entry of small fragments of nucleic acids into the blood and lung | did not act on the mutated 3′UTR of their target genes | reduced the relative expression level of the Luciferase with the wild-type 3′UTR in the target gene
CCCCC/C=C\C/C=C\CCCCCCCC(=O)O[C@H](COC(=O)CCCCCCCCCCCCCCC)COP(=O)([O-])OCC[N+](C)(C)C [No. 12, (2-{[(2R)-3-(hexadecanoyloxy)-2-[(9Z,12Z)-octadeca-9,12-dienoyloxy]propylphosphonato]oxy}ethyl)trimethylazanium] | entered into cytoplasm and were primarily localized in cytoplasm | could effectively facilitate nucleic acid molecules of different sequences entry into various cells | could promote entry of small fragments of nucleic acids into the blood and lung | did not act on the mutated 3′UTR of their target genes | reduced the relative expression level of the Luciferase with the wild-type 3′UTR in the target gene
